Activity calls are given as the source filed them. The rule behind the calls is not given here.
What was measured:
[1] = Ratio of AUC in brain to plasma or Wistar rat at 10 mg/kg, ip measured upto 8 hrs post dose by LC-MS/MS analysis; format: ADME, organism-based
[2] = Tmax in Wistar rat plasma at 10 mg/kg, ip measured upto 8 hrs post dose by LC-MS/MS analysis; format: ADME, organism-based; details: in vivo
[3] = target: Histamine H3 receptor (Homo sapiens) (UniProt Q9Y5N1); assay: Inhibition of histamine H3 receptor (unknown origin) at 10 uM relative to control
[4] = target: Relaxin-3 receptor 1 (Homo sapiens) (UniProt Q9NSD7); assay: Negative allosteric modulator activity at human RXFP3 expressed in CHO-K1 cells assessed as forskolin-induced cAMP accumulation at 3 to 30 uM measured after 30 mins in presence of relaxin-3 by TR-FRET assay; format: functional, cell-based; details: filed as negative allosteric modulator, dose 3-30 µM
[5] = target: 5-hydroxytryptamine receptor 1A (Homo sapiens) (UniProt P08908); assay: Inhibition of serotonin 5-HT1A receptor (unknown origin) at 10 uM relative to control
[6] = target: Beta-1 adrenergic receptor (Homo sapiens) (UniProt P08588); assay: Inhibition of adrenergic beta-1 receptor (unknown origin) at 10 uM relative to control
[7] = Cmax in Wistar rat plasma at 10 mg/kg, ip measured upto 8 hrs post dose by LC-MS/MS analysis; format: ADME, organism-based; parameters: time < 8 hrs, dose 10 mg/kg, route ip; details: in vivo
[8] = Half life in Wistar rat brain at 10 mg/kg, ip measured upto 8 hrs post dose by LC-MS/MS analysis; format: ADME, organism-based; details: in vivo
[9] = target: Alpha-2B adrenergic receptor (Homo sapiens) (UniProt P18089); assay: Inhibition of adrenergic alpha-2B receptor (unknown origin) at 10 uM relative to control
[10] = target: D(1B) dopamine receptor (Homo sapiens) (UniProt P21918); assay: Inhibition of dopamine D5 receptor (unknown origin) at 10 uM relative to control
[11] = target: 5-hydroxytryptamine receptor 2C (Homo sapiens) (UniProt P28335); assay: Inhibition of 5HT2C receptor (unknown origin) at 10 uM relative to control
[12] = target: Relaxin-3 receptor 1 (Homo sapiens) (UniProt Q9NSD7); assay: Negative allosteric modulator activity at human RXFP3 expressed in CHO-K1 cells assessed as [35S]GTPgammaS binding at 10 to 30 uM incubated for 1 hr by [35S]GTP-gammaS binding assay; format: functional, cell-based; details: filed as negative allosteric modulator, dose 10-30 µM
[13] = target: Mu-type opioid receptor (Homo sapiens) (UniProt P35372); assay: Inhibition of opioid u receptor (unknown origin) at 10 uM relative to control
Relaxin-3 receptor 1 = target: T1, Relaxin-3 receptor 1 (Homo sapiens, UniProt Q9NSD7); assay: Antagonist activity at human RXFP3 expressed in CHO-K1 cells assessed as [35S]GTPgammaS binding incubated for 1 hr by [35S]GTP-gammaS binding assay; format: functional, cell-based
T1 sequence (Q9NSD7 whole entry): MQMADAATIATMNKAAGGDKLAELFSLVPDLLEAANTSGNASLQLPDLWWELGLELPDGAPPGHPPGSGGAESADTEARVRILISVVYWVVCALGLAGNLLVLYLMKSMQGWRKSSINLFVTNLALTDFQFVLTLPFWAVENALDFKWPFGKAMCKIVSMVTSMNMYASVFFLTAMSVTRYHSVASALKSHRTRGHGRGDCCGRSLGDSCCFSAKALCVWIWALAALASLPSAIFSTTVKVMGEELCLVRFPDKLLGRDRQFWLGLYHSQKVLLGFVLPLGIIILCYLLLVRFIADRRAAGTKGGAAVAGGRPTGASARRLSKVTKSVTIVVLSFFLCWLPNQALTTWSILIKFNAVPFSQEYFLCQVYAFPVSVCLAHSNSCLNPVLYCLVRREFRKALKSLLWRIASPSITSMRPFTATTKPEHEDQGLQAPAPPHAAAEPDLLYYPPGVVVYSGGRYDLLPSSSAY

[14] = target: Sigma non-opioid intracellular receptor 1 (Homo sapiens) (UniProt Q99720); assay: Inhibition of sigma1 receptor (unknown origin) at 10 uM relative to control
[15] = target: Muscarinic acetylcholine receptor M4 (Homo sapiens) (UniProt P08173); assay: Inhibition of muscarinic M4 receptor (unknown origin) at 10 uM relative to control
[16] = target: Sigma intracellular receptor 2 (Homo sapiens, UniProt Q5BJF2); assay: Inhibition of sigma-2 receptor (unknown origin) at 10 uM relative to control
[17] = target: Alpha-1A adrenergic receptor (Homo sapiens) (UniProt P35348); assay: Inhibition of adrenergic alpha-1A receptor (unknown origin) at 10 uM relative to control
Homo sapiens = species: Homo sapiens; assay: Inhibition of GABAA receptor (unknown origin) at 10 uM relative to control
[18] = Efflux ratio of apparent permeability across basolateral to apical side over apical to basolateral side in MDCK-MDR1 cells measured upto 90 min by LC-MS/MS analysis; format: ADME, cell-based, Canis lupus familiaris; details: dog, mdck-mdr1, 1.5 h
[19] = target: 5-hydroxytryptamine receptor 1E (Homo sapiens) (UniProt P28566); assay: Inhibition of serotonin 5-HT1E receptor (unknown origin) at 10 uM relative to control
[20] = target: D(3) dopamine receptor (Homo sapiens) (UniProt P35462); assay: Inhibition of dopamine D3 receptor (unknown origin) at 10 uM relative to control
[21] = target: Sodium-dependent noradrenaline transporter (Homo sapiens) (UniProt P23975); assay: Inhibition of NET receptor (unknown origin) at 10 uM relative to control
[22] = Kinetic aqueous solubility of the compound in PBS at pH 7.4 measured after 2 hrs by LC/MS-MS method; format: physicochemical; details: buffer, pH 7.4, 2 h
[23] = target: Beta-3 adrenergic receptor (Homo sapiens) (UniProt P13945); assay: Inhibition of adrenergic beta-3 receptor (unknown origin) at 10 uM relative to control
[24] = target: Muscarinic acetylcholine receptor M3 (Homo sapiens) (UniProt P20309); assay: Inhibition of muscarinic M3 receptor (unknown origin) at 10 uM relative to control
[25] = target: Sodium-dependent serotonin transporter (Homo sapiens) (UniProt P31645); assay: Inhibition of SERT receptor (unknown origin) at 10 uM relative to control
[26] = target: 5-hydroxytryptamine receptor 3A (Homo sapiens) (UniProt P46098); assay: Inhibition of serotonin 5-HT3 receptor (unknown origin) at 10 uM relative to control
[27] = target: 5-hydroxytryptamine receptor 6 (Homo sapiens) (UniProt P50406); assay: Inhibition of serotonin 5-HT6 receptor (unknown origin) at 10 uM relative to control
[28] = target: Histamine H4 receptor (Homo sapiens) (UniProt Q9H3N8); assay: Inhibition of histamine H4 receptor (unknown origin) at 10 uM relative to control
[29] = target: 5-hydroxytryptamine receptor 5A (Homo sapiens) (UniProt P47898); assay: Inhibition of serotonin 5-HT5A receptor (unknown origin) at 10 uM relative to control
Sequence of 5-hydroxytryptamine receptor 5A (Homo sapiens) (P47898 whole entry): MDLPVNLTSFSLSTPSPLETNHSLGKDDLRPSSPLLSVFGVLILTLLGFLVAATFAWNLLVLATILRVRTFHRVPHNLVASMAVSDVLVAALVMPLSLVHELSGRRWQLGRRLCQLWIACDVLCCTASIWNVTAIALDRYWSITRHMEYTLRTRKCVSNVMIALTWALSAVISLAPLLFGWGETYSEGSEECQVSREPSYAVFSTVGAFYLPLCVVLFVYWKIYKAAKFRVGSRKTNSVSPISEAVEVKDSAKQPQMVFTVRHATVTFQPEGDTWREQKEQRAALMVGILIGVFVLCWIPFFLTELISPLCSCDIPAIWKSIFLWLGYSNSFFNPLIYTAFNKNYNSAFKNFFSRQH

Sequence of Alpha-1A adrenergic receptor (Homo sapiens) (P35348 whole entry): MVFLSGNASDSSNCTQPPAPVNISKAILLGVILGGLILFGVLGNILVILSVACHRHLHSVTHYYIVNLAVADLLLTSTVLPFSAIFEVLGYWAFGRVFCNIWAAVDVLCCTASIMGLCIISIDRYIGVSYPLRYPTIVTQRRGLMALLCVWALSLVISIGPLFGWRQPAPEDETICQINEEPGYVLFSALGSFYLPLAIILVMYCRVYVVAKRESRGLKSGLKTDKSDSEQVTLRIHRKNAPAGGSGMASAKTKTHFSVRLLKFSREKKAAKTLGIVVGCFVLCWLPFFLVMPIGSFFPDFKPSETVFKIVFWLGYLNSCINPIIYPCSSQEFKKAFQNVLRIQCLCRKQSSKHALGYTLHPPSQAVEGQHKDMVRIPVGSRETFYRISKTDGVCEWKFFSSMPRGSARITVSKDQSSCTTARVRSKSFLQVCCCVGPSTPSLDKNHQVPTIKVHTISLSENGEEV
Sequence of Beta-1 adrenergic receptor (Homo sapiens) (P08588 whole entry, looked up): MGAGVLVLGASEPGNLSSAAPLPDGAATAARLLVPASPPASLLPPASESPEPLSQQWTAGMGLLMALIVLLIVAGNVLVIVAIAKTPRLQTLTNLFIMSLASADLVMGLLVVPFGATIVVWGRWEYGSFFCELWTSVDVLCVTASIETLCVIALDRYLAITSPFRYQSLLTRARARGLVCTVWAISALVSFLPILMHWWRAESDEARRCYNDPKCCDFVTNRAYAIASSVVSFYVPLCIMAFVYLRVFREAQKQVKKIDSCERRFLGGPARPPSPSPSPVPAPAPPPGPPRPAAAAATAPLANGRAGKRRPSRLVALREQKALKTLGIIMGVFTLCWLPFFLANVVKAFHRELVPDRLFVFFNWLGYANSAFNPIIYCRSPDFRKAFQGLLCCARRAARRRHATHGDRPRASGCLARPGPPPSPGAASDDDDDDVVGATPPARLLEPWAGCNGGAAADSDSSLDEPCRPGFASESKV
Sequence of Sigma non-opioid intracellular receptor 1 (Homo sapiens) (Q99720 whole entry): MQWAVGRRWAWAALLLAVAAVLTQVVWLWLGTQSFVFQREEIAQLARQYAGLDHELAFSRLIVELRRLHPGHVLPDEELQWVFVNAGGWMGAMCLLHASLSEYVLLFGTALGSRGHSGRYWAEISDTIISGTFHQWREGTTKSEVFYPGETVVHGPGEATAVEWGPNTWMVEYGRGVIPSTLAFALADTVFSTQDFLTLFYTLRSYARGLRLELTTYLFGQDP
Sequence of Sodium-dependent serotonin transporter (Homo sapiens) (P31645 whole entry, looked up): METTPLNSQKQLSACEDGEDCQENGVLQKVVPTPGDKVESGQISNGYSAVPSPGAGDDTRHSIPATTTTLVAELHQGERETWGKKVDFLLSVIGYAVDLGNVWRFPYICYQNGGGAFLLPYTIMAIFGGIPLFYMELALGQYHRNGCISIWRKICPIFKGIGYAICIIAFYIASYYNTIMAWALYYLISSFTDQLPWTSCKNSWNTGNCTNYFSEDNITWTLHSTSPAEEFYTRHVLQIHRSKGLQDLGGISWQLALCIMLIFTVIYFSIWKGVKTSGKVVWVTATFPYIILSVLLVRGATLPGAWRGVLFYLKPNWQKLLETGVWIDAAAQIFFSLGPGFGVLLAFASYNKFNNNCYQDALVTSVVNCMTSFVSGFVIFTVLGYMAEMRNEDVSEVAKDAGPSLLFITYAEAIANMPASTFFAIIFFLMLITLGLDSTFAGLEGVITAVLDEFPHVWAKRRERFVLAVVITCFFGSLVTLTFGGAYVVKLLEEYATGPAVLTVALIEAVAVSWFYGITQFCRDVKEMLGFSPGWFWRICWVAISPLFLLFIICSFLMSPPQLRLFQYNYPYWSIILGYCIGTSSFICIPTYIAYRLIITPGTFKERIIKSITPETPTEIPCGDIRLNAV
Sequence of 5-hydroxytryptamine receptor 2C (Homo sapiens) (P28335 whole entry): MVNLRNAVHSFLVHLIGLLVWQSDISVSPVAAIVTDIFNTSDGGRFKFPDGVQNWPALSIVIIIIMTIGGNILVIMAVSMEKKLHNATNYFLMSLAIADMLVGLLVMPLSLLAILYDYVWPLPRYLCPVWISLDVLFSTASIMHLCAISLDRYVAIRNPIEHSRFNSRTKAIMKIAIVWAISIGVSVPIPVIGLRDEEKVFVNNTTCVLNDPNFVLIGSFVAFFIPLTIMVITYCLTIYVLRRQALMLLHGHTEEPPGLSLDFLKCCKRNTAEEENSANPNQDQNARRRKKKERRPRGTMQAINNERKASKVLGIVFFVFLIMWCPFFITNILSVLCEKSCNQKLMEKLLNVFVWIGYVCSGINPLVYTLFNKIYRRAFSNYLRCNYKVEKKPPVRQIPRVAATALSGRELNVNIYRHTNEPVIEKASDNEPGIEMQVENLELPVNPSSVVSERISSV
Sequence of Mu-type opioid receptor (Homo sapiens) (P35372 whole entry): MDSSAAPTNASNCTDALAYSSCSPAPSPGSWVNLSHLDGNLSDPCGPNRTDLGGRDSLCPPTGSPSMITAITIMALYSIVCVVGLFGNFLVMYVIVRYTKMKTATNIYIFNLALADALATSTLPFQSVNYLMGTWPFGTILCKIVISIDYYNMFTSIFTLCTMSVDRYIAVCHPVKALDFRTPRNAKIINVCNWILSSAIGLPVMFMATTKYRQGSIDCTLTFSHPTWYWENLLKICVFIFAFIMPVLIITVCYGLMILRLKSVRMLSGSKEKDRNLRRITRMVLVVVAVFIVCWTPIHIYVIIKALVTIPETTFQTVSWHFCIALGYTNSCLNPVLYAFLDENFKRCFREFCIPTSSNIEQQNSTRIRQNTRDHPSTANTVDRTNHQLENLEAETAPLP
Sequence of 5-hydroxytryptamine receptor 1A (Homo sapiens) (P08908 whole entry): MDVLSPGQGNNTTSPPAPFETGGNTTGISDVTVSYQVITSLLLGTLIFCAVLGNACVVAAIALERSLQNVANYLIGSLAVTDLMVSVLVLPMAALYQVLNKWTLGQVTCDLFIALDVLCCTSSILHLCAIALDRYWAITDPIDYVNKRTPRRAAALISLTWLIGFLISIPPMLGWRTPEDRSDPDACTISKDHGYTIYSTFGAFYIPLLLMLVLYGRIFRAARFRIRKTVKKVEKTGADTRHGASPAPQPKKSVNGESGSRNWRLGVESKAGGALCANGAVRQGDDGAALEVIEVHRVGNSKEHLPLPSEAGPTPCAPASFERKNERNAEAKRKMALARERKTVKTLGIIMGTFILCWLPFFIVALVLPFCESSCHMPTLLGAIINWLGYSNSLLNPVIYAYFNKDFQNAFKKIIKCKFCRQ
Sequence of Histamine H3 receptor (Homo sapiens) (Q9Y5N1 whole entry): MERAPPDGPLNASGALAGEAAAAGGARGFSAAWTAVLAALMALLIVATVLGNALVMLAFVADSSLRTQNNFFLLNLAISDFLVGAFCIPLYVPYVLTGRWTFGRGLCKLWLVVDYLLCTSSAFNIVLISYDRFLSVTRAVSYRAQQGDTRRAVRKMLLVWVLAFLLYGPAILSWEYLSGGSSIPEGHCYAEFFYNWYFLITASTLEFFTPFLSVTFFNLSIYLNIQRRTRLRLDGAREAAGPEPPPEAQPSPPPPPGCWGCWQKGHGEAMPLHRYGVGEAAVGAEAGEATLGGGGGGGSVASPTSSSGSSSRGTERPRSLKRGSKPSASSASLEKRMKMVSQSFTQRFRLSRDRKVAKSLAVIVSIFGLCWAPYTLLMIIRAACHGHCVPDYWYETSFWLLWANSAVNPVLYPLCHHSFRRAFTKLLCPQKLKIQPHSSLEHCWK
Sequence of 5-hydroxytryptamine receptor 3A (Homo sapiens) (P46098 whole entry): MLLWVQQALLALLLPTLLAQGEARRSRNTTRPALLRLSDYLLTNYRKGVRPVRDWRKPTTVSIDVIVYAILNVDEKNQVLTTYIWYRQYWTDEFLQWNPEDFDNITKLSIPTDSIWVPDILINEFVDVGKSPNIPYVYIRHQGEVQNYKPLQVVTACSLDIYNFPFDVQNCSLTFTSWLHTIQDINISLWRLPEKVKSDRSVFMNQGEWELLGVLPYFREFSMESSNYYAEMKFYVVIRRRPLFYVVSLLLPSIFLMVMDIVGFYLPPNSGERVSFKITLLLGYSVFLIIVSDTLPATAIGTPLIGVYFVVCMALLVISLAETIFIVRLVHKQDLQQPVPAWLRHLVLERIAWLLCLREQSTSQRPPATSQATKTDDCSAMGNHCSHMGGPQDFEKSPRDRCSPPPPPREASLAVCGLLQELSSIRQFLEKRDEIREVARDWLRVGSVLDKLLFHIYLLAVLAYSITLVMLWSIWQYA
Sequence of Sodium-dependent noradrenaline transporter (Homo sapiens) (P23975 whole entry): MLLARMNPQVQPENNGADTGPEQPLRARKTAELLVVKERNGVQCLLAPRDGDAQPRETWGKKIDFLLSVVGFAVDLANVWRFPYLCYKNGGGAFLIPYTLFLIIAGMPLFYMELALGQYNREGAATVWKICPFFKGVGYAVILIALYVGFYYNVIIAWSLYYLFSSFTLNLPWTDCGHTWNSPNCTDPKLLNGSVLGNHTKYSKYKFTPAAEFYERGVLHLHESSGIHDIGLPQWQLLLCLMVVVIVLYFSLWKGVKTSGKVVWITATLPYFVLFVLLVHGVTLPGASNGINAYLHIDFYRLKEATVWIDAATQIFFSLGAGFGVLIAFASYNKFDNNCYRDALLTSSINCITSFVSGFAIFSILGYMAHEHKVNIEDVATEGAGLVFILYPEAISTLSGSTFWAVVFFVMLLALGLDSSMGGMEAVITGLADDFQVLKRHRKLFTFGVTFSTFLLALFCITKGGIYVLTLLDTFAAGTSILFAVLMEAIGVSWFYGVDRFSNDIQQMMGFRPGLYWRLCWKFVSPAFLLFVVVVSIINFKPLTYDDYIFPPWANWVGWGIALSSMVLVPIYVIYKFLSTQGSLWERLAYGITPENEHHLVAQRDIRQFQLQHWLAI

With `O=C(Nc1ccc(-c2nc(-c3ccc(Cl)cc3)no2)cc1)C1CC(=O)N(Cc2ccco2)C1` (stereo unspecified) the Ratio [1] was 2.3, the Tmax [2] was 0.5 h and the inhibition [3] was less than 50%. The Activity [4] was “Active”, the inhibition [5] was less than 50% and the inhibition [6] was less than 50%. For the same molecule, the Cmax [7] was 1401 ng/mL, the t1/2 [8] was 4.9 h and the inhibition [9] was less than 50%. For the same molecule, the inhibition [10] was less than 50%, the inhibition [11] was 53% and the Activity [12] was “Active”. It also gave an inhibition [13] of less than 50%, an IC50 (Relaxin-3 receptor 1) of 4.52 µM and an inhibition [14] of less than 50%. It also gave an inhibition [15] of less than 50%, an inhibition [16] of 95% and an inhibition [17] of less than 50%. The inhibition (Homo sapiens) was less than 50%, the Ratio [18] was 1 and the inhibition [19] was less than 50%. It also gave an inhibition [20] of less than 50%, an inhibition [21] of less than 50% and a Kinetic_solubility [22] of less than 1 µM. It also gave an inhibition [23] of less than 50%, an inhibition [24] of less than 50% and an inhibition [25] of less than 50%. The inhibition [26] was less than 50%, the inhibition [27] was less than 50% and the inhibition [28] was less than 50%. The inhibition [29] was less than 50%.
